Test [1] has as its system mouse IL-31 gene. Kind of test: IL-31 production inhibitory action: IL-31 gene expression by real-time PCR in antigen-stimulated CD4+ T cells from Dock8−/− AND Tg mice. It is filed as cell-based. The conditions noted are these: for activity at 0.078 µM / activity at 0.156 µM / activity at 0.312 µM / activity at 0.625 µM / activity at 1.25 µM / activity at 2.5 µM: Mus musculus, CD4+ T, 24 h, read-out: qPCR results (IL-31 production (%)): based on the case using 0.1% DMSO taken as 100%; for IL-31 production inhibitory action (in words, discussion of Table 1): relative to compound 1.

Test [2] relates to CD4+ T cells. Description: T cell proliferation assay (PMA and ionomycin, 3H-thymidine incorporation). It is filed as cell-based, mouse. The conditions noted are these: Mus musculus, CD4+ T, 66 h, read-out: Cell proliferation (%): based on the case using 0.2% DMSO taken as 100%. As to the method:
A T cell proliferation assay was performed by culturing CD4^+ T cells (5×10^4 cells) with T cell-depleted irradiated spleen cells (1×10^6 cells) in the presence of phorbol 12-myristate 13-acetate (PMA: 100 ng/ml; Sigma-Aldrich) and ionomycin (1 μg/ml; Sigma-Aldrich) for 66 hours. For the last 18 hours of culture, ^3H-thymidine (0.037 MBq) was added, and the incorporated radioactivity was measured with MicroBeta^2 (PerkinElmer, Inc., Waltham, MS).
A T cell proliferation assay was performed by culturing CD4^+ T cells (5×10^4 cells) with T cell-depleted irradiated spleen cells (1×10^6 cells) in the presence of phorbol 12-myristate 13-acetate (PMA: 100 ng/ml; Sigma-Aldrich) and ionomycin (1 μg/ml; Sigma-Aldrich) for 66 hours. Test compounds were added at various final concentrations at the start of culture. For the last 18 hours of culture, ^3H-thymidine (0.037 MBq) was added, and the incorporated radioactivity was measured with MicroBeta^2 (PerkinElmer, Inc., Waltham, MS). […]

Regarding `O=C(O)c1ccc(-c2ncc(-c3cc(C(F)(F)F)ccc3Cl)[nH]2)cc1` [Compound 27, 4-(5-(2-Chloro-5-(trifluoromethyl)phenyl)-1H-imidazol-2-yl)benzoic Acid], in test [1], the activity at 0.078 µM came out at 28.6%, the activity at 0.156 µM amounted to 35.1%, the activity at 0.312 µM came out at 39.6% and the activity at 0.625 µM was determined as 43.1%. In addition, the activity at 1.25 µM in test [1] worked out at 46.8%. Further, in test [2], the activity at 5 µM was found to be 86.2%, the activity at 10 µM was found to be 78% and the activity at 20 µM amounted to 70%.
For `CC(C)c1ccc(/C=N/Nc2ccccc2C(=O)O)cc1` [Negative control compound 5, 2-(2-(4-Isopropylbenzylidene)hydrazineyl)benzoic Acid, reference compound], the “IL-31 production inhibitory action (in words, discussion of Table 1)” value (“IL-31 production inhibitory action” below) in test [1] is “completely lost”.
For `CN(C)c1ccc(-c2cnc(-c3ccc(C(=O)O)cc3)o2)cc1` [Compound 19, 4-(5-(4-(Dimethylamino)phenyl)oxazol-2-yl)benzoic Acid], in test [1], the activity at 0.312 µM was found to be 67.6%, the activity at 0.625 µM worked out at 69.9%, the activity at 1.25 µM turned out to be 54.5% and the activity at 2.5 µM was 16.9%. Moreover, in test [2], the activity at 5 µM amounted to 86.3%, the activity at 10 µM was 79.4%, the activity at 20 µM came out at 66% and the activity at 40 µM worked out at 67.4%.
For the compound `O=C(O)c1ccc(-c2cn(-c3cc(C(F)(F)F)ccc3F)nn2)cc1` [Compound 24, 4-(1-(2-Fluoro-5-(trifluoromethyl)phenyl)-1H-1,2,3-triazol-4-yl)benzoic Acid], in test [1], the activity at 0.156 µM came out at 31.2%, the activity at 0.312 µM amounted to 18.1%, the activity at 0.625 µM amounted to 32% and the activity at 1.25 µM came out at 31.5%. In test [2], the activity at 5 µM was 88.1%, the activity at 10 µM came out at 81.5%, the activity at 20 µM was 71.3% and the activity at 40 µM was 62.9%.
As for `CN(C)c1ccc(/C=N/Nc2ccc(C(=O)O)cc2)c(O)c1` [Negative control compound 2, 4-(2-(4-(Dimethylamino)-2-hydroxybenzylidene)hydrazineyl)benzoic Acid, reference compound], in test [1], the “IL-31 production inhibitory action” value is recorded as “tended to notably decrease”.
In the case of `CC(C)c1ccc(-c2nnc(-c3ccc(C(=O)O)cc3)o2)cc1` [Compound 31, 4-(5-(4-Isopropylphenyl)-1,3,4-oxadiazol-2-yl)benzoic Acid], in test [1], the activity at 0.625 µM came to 53.6% and the activity at 1.25 µM was determined as 24%. Moreover, in test [2], the activity at 10 µM was 97.5%, the activity at 20 µM worked out at 79.3% and the activity at 40 µM is 65.6%.
`CC(C)(C)c1ccc(/C=N/Nc2ccc(C(=O)O)cc2)cc1` [Compound 2, 4-(2-(4-(tert-Butyl)benzylidene)hydrazinyl)benzoic Acid]: the “IL-31 production inhibitory action” value in test [1] is “maintained”.
For the compound `O=C(O)c1ccc(-c2cnc(-c3cc(C(F)(F)F)ccc3Cl)o2)cc1` [Compound 20, 4-(2-(2-Chloro-5-(trifluoromethyl)phenyl)oxazol-5-yl)benzoic Acid], in test [1], the activity at 0.078 µM stood at 16.9%, the activity at 0.156 µM was found to be 17.7%, the activity at 0.312 µM worked out at 23.3% and the activity at 0.625 µM was found to be 24.7%. In test [1], the activity at 1.25 µM was determined as 22.1% and the activity at 2.5 µM was found to be 32.6%. Further, in test [2], the activity at 10 µM turned out to be 91.2%, the activity at 20 µM came out at 87.5% and the activity at 40 µM worked out at 86.7%.
Regarding `O=C(O)c1ccc(-c2nc(-c3cc(C(F)(F)F)ccc3Cl)no2)cc1` [Compound 33, 4-(3-(2-Chloro-5-(trifluoromethyl)phenyl)-1,2,4-oxadiazol-5-yl)benzoic Acid], in test [1], the activity at 0.078 µM came out at 57.7%, the activity at 0.156 µM is 48.9%, the activity at 0.312 µM worked out at 37.9% and the activity at 0.625 µM amounted to 25.1%. In test [1], the activity at 1.25 µM was found to be 28% and the activity at 2.5 µM was determined as 29.7%. Further, in test [2], the activity at 10 µM was 73.5%, the activity at 20 µM is 66.7% and the activity at 40 µM stood at 64.3%.
Regarding `O=C(O)c1ccc(-c2cc(-c3cc(C(F)(F)F)ccc3Cl)no2)cc1` [Compound 21, 4-(3-(2-Chloro-5-(trifluoromethyl)phenyl)isoxazol-5-yl)benzoic Acid], in test [1], the activity at 0.078 µM was determined as 23.7%, the activity at 0.156 µM came to 29.9%, the activity at 0.312 µM came out at 25.3% and the activity at 0.625 µM was 23%. Further, in test [1], the activity at 1.25 µM amounted to 38.2% and the activity at 2.5 µM was found to be 13.1%. In addition, in test [2], the activity at 10 µM amounted to 95.5%, the activity at 20 µM was found to be 98.2% and the activity at 40 µM worked out at 106%.
For the compound `O=C(O)c1ccc(N/N=C/C2CCCCC2)cc1` [Negative control compound 7, 4-(2-(Cyclohexylmethylene)hydrazinyl)benzoic Acid, reference compound], in test [1], the “IL-31 production inhibitory action” value is recorded as “completely lost”.
Turning to `O=C(O)c1ccc(-n2ccc(-c3cc(C(F)(F)F)ccc3Cl)n2)cc1` [Compound 30, 4-(3-(2-Chloro-5-(trifluoromethyl)phenyl)-1H-pyrazol-1-yl)benzoic Acid], in test [1], the activity at 0.078 µM is 41.5%, the activity at 0.156 µM amounted to 39.9%, the activity at 0.312 µM stood at 29.4% and the activity at 0.625 µM came out at 23.4%. In addition, in test [1], the activity at 1.25 µM amounted to 26.1% and the activity at 2.5 µM came out at 30.9%. For the same compound, in test [2], the activity at 10 µM came out at 98.3%, the activity at 20 µM came to 90.3% and the activity at 40 µM came to 76.4%.
With `CC(C)c1ccc(/C=N/Nc2cccc(C(=O)O)c2)cc1` [Negative control compound 4, 3-(2-(4-Isopropylbenzylidene)hydrazineyl)benzoic Acid, reference compound], the “IL-31 production inhibitory action” value in test [1] is “completely lost”.
In the case of `O=C(O)c1ccc(-c2cc(-c3cc(C(F)(F)F)ccc3Cl)[nH]n2)cc1` [Compound 29, 4-(5-(2-Chloro-5-(trifluoromethyl)phenyl)-1H-pyrazol-3-yl)benzoic Acid], in test [1], the activity at 0.156 µM was determined as 59.1%, the activity at 0.312 µM was determined as 52.3%, the activity at 0.625 µM worked out at 61.9% and the activity at 1.25 µM was 40.7%. The activity at 2.5 µM in test [1] came to 63.6%. Further, in test [2], the activity at 10 µM was 88.6%, the activity at 20 µM is 77.7% and the activity at 40 µM was 86%.
Consider `CC(C)c1ccc(/C=N/Nc2ccccc2)cc1` [Negative control compound 6, 1-(4-Isopropylbenzylidene)-2-phenylhydrazine, reference compound], for which the “IL-31 production inhibitory action” value in test [1] is recorded as “completely lost”.
In the case of `CC(C)c1ccc(-c2cc(-c3ccc(C(=O)O)cc3)n[nH]2)cc1` [Compound 28, 4-(5-(4-Isopropylphenyl)-1H-pyrazol-3-yl)benzoic Acid], in test [1], the activity at 0.156 µM stood at 73.2%, the activity at 0.312 µM was 70.6%, the activity at 0.625 µM is 42.6% and the activity at 1.25 µM amounted to 28%. Also, in test [2], the activity at 10 µM was found to be 99.9%, the activity at 20 µM was 89.5% and the activity at 40 µM is 69.1%.
In the case of `CN(C)c1ccc(/C=N/Nc2ccc(C(=O)O)cc2)cc1` [Compound 3, 4-(2-(4-(Dimethylamino)benzylidene)hydrazinyl)benzoic Acid], the “IL-31 production inhibitory action” value in test [1] was “maintained”.
For `CN(CC(O)CO)c1ccc(/C=N/Nc2ccc(C(=O)O)cc2)cc1` (centres unmarked) [Negative control compound 3, 4-(2-(4-((2,3-Dihydroxypropyl)(methyl)amino)benzylidene)hydrazineyl)benzoic Acid, reference compound], in test [1], the “IL-31 production inhibitory action” value was “tended to notably decrease”.
On to `O=C(O)c1ccc(-c2nnc(-c3cc(C(F)(F)F)ccc3Cl)o2)cc1` [Compound 32, 4-(5-(2-Chloro-5-(trifluoromethyl)phenyl)-1,3,4-oxadiazol-2-yl)benzoic Acid], for which, in test [1], the activity at 0.156 µM was found to be 35.5%, the activity at 0.312 µM amounted to 52.1%, the activity at 0.625 µM came out at 39.9% and the activity at 1.25 µM was 53.5%. In test [2], the activity at 10 µM came out at 115%, the activity at 20 µM was found to be 92.7% and the activity at 40 µM is 91.8%.

The values above are taken from patent publication US20240139214A1, “AGENT FOR SUPPRESSING IL-31 PRODUCTION AND PHARMACEUTICAL COMPOSITION CONTAINING THE SAME” (KYUSHU UNIVERSITY, NATIONAL UNIVERSITY CORPORATION, priority 2021, published 2024).
